In ChEMBL document CHEMBL1777754, “Synthesis and crystallographic analysis of new sulfonamides incorporating NO-donating moieties with potent antiglaucoma action” (Bioorg Med Chem Lett, 2011):

Experiments:
[1] = biological target: Carbonic anhydrase 1 (Homo sapiens, UniProt P00915)
Description: Inhibition of human CA1 by CO2 hydration assay

[2] = biological target: Carbonic anhydrase 4 (Homo sapiens, UniProt P22748)
Description: Inhibition of human CA4 by CO2 hydration assay

[3] = biological target: Carbonic anhydrase 9 (Homo sapiens, UniProt Q16790)
Description: Inhibition of human recombinant CA9 catalytic domain by CO2 hydration assay

[4] = biological target: Carbonic anhydrase 12 (Homo sapiens, UniProt O43570)
Description: Inhibition of human recombinant CA12 catalytic domain by CO2 hydration assay

[5] = biological target: Carbonic anhydrase 2 (Homo sapiens, UniProt P00918)
Description: Inhibition of human CA2 by CO2 hydration assay

[6] = test system: Oryctolagus cuniculus; assay: Antiglaucoma activity in New Zealand rabbits assessed as inhibition of carbomer-induced ocular hypertension at 2 % in 50 uL administered into eye after 2 to 3 weeks of carbomer challenge (reference value: 34.2 +/- 1.4 mmHg); format: functional
[7] = Solubility of the compound in water; format: physicochemical; details: buffer
[8] = test system: Oryctolagus cuniculus; assay: Antiglaucoma activity in New Zealand rabbits assessed as inhibition of carbomer-induced ocular hypertension at 2 % in 50 uL administered into eye after 2 to 3 weeks of carbomer challenge (reference value: 35.3 +/- 1.2 mmHg); format: functional

Chain of Carbonic anhydrase 4 (P22748 whole entry): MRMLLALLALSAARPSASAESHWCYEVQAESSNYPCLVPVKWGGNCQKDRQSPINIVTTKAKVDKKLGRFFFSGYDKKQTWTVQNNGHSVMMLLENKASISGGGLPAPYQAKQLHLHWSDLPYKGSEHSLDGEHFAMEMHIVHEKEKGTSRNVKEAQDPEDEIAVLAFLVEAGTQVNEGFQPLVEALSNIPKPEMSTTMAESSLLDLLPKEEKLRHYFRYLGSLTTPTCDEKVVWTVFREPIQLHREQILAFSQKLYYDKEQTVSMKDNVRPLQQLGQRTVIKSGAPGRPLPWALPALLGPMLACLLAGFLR
Chain of Carbonic anhydrase 1 (P00915 whole entry): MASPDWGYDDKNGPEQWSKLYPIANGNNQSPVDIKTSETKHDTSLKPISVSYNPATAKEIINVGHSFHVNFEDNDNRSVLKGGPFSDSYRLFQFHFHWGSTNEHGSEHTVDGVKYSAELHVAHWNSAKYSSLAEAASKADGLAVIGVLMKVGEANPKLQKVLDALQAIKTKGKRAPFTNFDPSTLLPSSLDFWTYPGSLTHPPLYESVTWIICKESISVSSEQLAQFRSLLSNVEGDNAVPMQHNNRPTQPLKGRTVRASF
Chain of Carbonic anhydrase 12 (O43570 whole entry): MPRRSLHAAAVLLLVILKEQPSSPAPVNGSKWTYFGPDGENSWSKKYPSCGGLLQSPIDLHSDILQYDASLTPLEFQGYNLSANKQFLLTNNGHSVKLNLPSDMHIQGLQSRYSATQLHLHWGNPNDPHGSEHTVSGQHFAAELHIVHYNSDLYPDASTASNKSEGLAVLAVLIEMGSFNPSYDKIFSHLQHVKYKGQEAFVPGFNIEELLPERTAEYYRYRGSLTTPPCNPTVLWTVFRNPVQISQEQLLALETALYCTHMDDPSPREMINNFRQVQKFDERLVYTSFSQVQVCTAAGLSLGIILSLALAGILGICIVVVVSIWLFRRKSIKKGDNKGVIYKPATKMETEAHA

| Structure (SMILES) | Ki [1] [nM] | Ki [2] [nM] | Ki [3] [nM] | Ki [4] [nM] | Ki [5] [nM] | Activity [6] [mmHg] | solubility [7] [%] | Activity [8] [mmHg] |
| --- | --- | --- | --- | --- | --- | --- | --- | --- |
| NS(=O)(=O)c1nnc(NS(=O)(=O)c2cccc(C(=O)OCCCCO[N+](=O)[O-])c2)s1 | 40 | 154 | 235 | 31 |  |  |  |  |
| NS(=O)(=O)c1ccc(OCCCO[N+](=O)[O-])cc1 | 587 | 148 | 83 | 83 | 88 |  |  |  |
| NS(=O)(=O)c1ccc(C(=O)OCCCCO[N+](=O)[O-])cc1 | 189 | 44 | 165 | 30 | 18 | 20.6 | 2 |  |
| NS(=O)(=O)c1ccc(C(=O)OCc2ccc(CO[N+](=O)[O-])cc2)cc1 | 242 | 345 | 253 | 147 | 198 |  |  |  |
| COc1cc(/C=C/C(=O)OCCCCO[N+](=O)[O-])ccc1OC(=O)c1ccc(S(N)(=O)=O)cc1 | 15 | 47 | 11 | 19 | 10 |  | > 0.3 |  |
| COc1cc(/C=C/C(=O)OCCCCO[N+](=O)[O-])ccc1OC(=O)c1cccc(S(=O)(=O)Nc2nnc(S(N)(=O)=O)s2)c1 | 137 | 225 | 177 | 42 | 33 |  |  |  |
| NS(=O)(=O)c1nnc(NS(=O)(=O)c2ccc(C(=O)OCCCCO[N+](=O)[O-])cc2)s1 | 32 | 46 | 10 | 31 | 10 |  |  |  |
| COc1cc(/C=C/C(=O)OCCCCO[N+](=O)[O-])ccc1OC(=O)c1ccc(S(=O)(=O)Nc2nnc(S(N)(=O)=O)s2)cc1 | 43 | 38 | 11 | 43 | 14 |  |  |  |
| COc1cc(/C=C/C(=O)OCCCCO[N+](=O)[O-])ccc1OC(=O)CCc1ccc(S(N)(=O)=O)cc1 | 395 | 139 | 93 | 87 | 101 |  |  |  |
| NS(=O)(=O)c1ccc(OCCCCO[N+](=O)[O-])cc1 | 41 | 76 | 25 | 29 | 12 |  |  |  |
| NS(=O)(=O)c1ccc(OCCCCCO[N+](=O)[O-])cc1 | 950 | 89 | 85 | 116 | 71 |  |  |  |
| CCN(CC)CCOC(=O)c1ccc(S(=O)(=O)Nc2nnc(S(N)(=O)=O)s2)cc1 |  |  |  |  | 1.4 |  |  |  |
| O=[N+]([O-])O[C@@H]1CO[C@H]2[C@@H]1OC[C@@H]2O [ISOSORBIDE MONONITRATE] |  |  |  |  |  |  |  | 28.4 |
